Assays:
[1] = test system: Aorta bearing atherosclerotic plaque; assay: Ex-vivo blood vessel binding assay; design: species or system New Zealand white rabbits; details: 153Gd-labeled compound 0.135 μCi in PBS, 2 h at 37° C., plaque-bearing rabbit aorta sections; percentage of initial activity
Method: Aorta bearing atherosclerotic plaque was obtained from New Zealand white rabbits that were balloon stripped along the abdominal aorta and placed on a high fat diet (0.5% cholesterol) for 16-22 weeks. Vascular injury was produced with a 4-F Fogarty catheter along the abdominal aorta and right iliofemoral artery. This procedure generates an accelerated complex lesion development with a lipid rich core covered by a fibrous cap in rabbits. Harvested aorta sections (0.5 cm) were incubated with 0.135 μCi of ^153Gd-labeled compound diluted in phosphate buffered saline (450 μL) for 2 h at 37° C. The supernatant was removed and analyzed by HPLC to assay compound stability. The tissue section was then washed with phosphate buffered saline (3×10 mL), then resuspended (10 mL) and incubated at 37° C. an additional 1 h. The supernatant was then removed, the washing process repeated and the tissue finally counted on a gamma counter. The amount of compound bound to the tissue was determined as a percentage of the initial activity according to the following formula: […]

aorta = details: 60 min post injection; for aorta uptake (% ID/g): ApoE mice on high-fat diet 35-42 weeks, 0.3-0.4 mCi/kg bolus via tail vein; for aorta:blood / aorta:heart: ApoE mice, uptake ratio
Method: The apolipoprotein E (ApoE) knockout mouse is a model of hypercholesterolemia that develops atherosclerotic lesions in the brachiocephalic artery, the aortic arch and the abdominal aorta. Mice were fed a high-fat diet to accelerate plaque formation and compounds were tested in the mice between 35-42 weeks on diet. Test compounds were administered at 0.3-0.4 mCi/kg to anesthetized mice in a single, bolus injection via the tail vein. Blood samples were collected via the tail between 0-30 min post injection for pharmacokinetic analysis and mice were euthanized by CO2 at 60 min for tissue harvesting. The aorta was first flushed with saline through the left ventricle exiting via the femoral vein then removed from the heart to the renal bifurcation; additional biological samples were also collected (blood, muscle, liver, kidney, bile, urine, heart, femur, reproductive organ, lung, spleen and innominate artery). All samples were weighed and assayed for radioactivity; uptake is expressed as a percentage of injected dose per gram of tissue (% ID/g).

Row | SMILES | % bound [1] [%] | aorta uptake (% ID/g) (aorta) | aorta:blood (aorta) | aorta:heart (aorta)
1 | [153Gd+3].[NH3+][C@@H](CCc1ccccc1)C(=O)NOCc1ccc(CNC(=O)CN(CCN(CC(=O)[O-])CC(=O)[O-])CCN(CC(=O)[O-])CC(=O)[O-])cc1 [Example 39] | 15.8 | 6.1 ± 0.4 | 11.4 | 13.6
2 | CC(C)C[C@@H]([NH3+])C(=O)NOCCCCCCNC(=O)CN(CCN(CC(=O)[O-])CC(=O)[O-])CCN(CC(=O)[O-])CC(=O)[O-].[153Gd+3] [Example 40] | 7.2 | 3.6 ± 0.3 | 3.4 | 8.4
3 | [153Gd+3].[NH3+][C@H](Cc1ccc(-c2ccccc2)cc1)C(=O)NOCCCCCCNC(=O)CN(CCN(CC(=O)[O-])CC(=O)[O-])CCN(CC(=O)[O-])CC(=O)[O-] [Example 41] | 28.7 | 2.0 ± 0.1 | 7.2 | 20.4
4 | [153Gd+3].[NH3+][C@H](CC1CCCCC1)C(=O)NOCCCCCCNC(=O)CN(CCN(CC(=O)[O-])CC(=O)[O-])CCN(CC(=O)[O-])CC(=O)[O-] [Example 42] | 17.9 | 8.1 ± 1.1 | 8.0 | 18.0
5 | [153Gd+3].[NH3+][C@H](Cc1c[nH]c2ccccc12)C(=O)NOCCCc1ccc(CNC(=O)CN(CCN(CC(=O)[O-])CC(=O)[O-])CCN(CC(=O)[O-])CC(=O)[O-])cc1 [Example 43] | 27.1 | 6.0 ± 1.7 | 2.7 | 9.0
6 | [153Gd+3].[NH3+][C@H](CCc1ccccc1)C(=O)NOCCCc1ccc(CNC(=O)CN(CCN(CC(=O)[O-])CC(=O)[O-])CCN(CC(=O)[O-])CC(=O)[O-])cc1 [Example 44] | 27.3 | 8.4 ± 0.2 | 3.2 | 12.5
7 | [153Gd+3].[NH3+][C@H](CCc1ccccc1)C(=O)NOCCCCCCNC(=O)CN(CCN(CC(=O)[O-])CC(=O)[O-])CCN(CC(=O)[O-])CC(=O)[O-] [Example 45] | 14.4 | 9.0 ± 0.2 | 2.1 | 12.1
8 | O=C([O-])CN1CCN(CC(=O)[O-])CCN(CC(=O)NCc2ccc(CNC(CCc3ccccc3)C(=O)NOCc3ccccc3)cc2)CCN(CC(=O)[O-])CC1.[153Gd+3] (stereo not shown) [Example 53] | – | 1.5 ± 0.1 | 0.8 | 4.2
9 | CONC(=O)[C@H](N)Cc1ccc(CNC(=O)CN2CCN(CC(=O)[O-])CCN(CC(=O)[O-])CCN(CC(=O)[O-])CC2)cc1.[153Gd+3] [Example 54] | – | 2.5 ± 0.5 | 1.2 | 5.3
10 | N[C@H](Cc1ccc(CNC(=O)CN2CCN(CC(=O)[O-])CCN(CC(=O)[O-])CCN(CC(=O)[O-])CC2)cc1)C(=O)NOCc1ccccc1.[153Gd+3] [Example 55] | – | 3.0 ± 2.3 | 1.0 | 8.8
11 | CC(C)C[C@@H]([NH3+])C(=O)NOCc1ccc(CNC(=O)CN(CCN(CC(=O)[O-])CC(=O)[O-])CCN(CC(=O)[O-])CC(=O)[O-])cc1.[153Gd+3] [Example 56] | – | 8.5 ± 1.8 | 5.5 | 21.2

Reference: patent publication US9732047B2, “N-alkoxyamide conjugates as imaging agents” (Lantheus Medical Imaging, Inc., priority 2008, dated 2017)
